Laboratory results from patent US20240189287A1, “PERIPHERALLY RESTRICTED CB1 RECEPTOR BLOCKERS AND USES THEREOF” (BIONANOSIM (BNS) LTD, priority 2021, published 2024).
Read-outs that look alike come from different tables or passages of the source.

Tests used:
[1] = test system: Salmonella typhimurium (TA98, TA100); details: for increase in reversion over the negative control: TA98 and TA100, with and without S9
[2] = test system: C57Bl/6J mice; assay: Inhibition of HU210-induced hypomotility; type: in vivo; details: HU210 30 μg/kg IP 30 min after
From the text: Locomotor activity: Locomotor activity was quantified by the number of disruptions of infrared XYZ beam arrays with a beam spacing of 0.25 cm in the Promethion High-Definition Behavioral Phenotyping System (Sable Instruments, Inc., Las Vegas, NV, USA).
The ability of BNS822 and BNS808 to induce CNS-mediated hyperactivity was further evaluated in a mouse model, using rimonabant (a brain penetrant CB1 receptor blocker) as a positive control. Mice (wild-type male C57Bl/6J) received a single dose of rimonabant (10 mg/kg IP), BNS822 (20 mg/kg PO) BNS 808 (1, 10 mg/kg PO) or vehicle; ambulatory activity was measured by the Promethion Metabolic System (Sable Instruments, Inc). In the same experimental scheme, BNS822, BNS808 and rimonabant were further studied regarding the potential to inhibit the hypomotility-induced by a CB1 receptor agonist, HU210, after a single dose of rimonabant (10 mg/kg IP), BNS822 (20 mg/kg PO) BNS808 (1, 10 mg/kg PO) or vehicle and a single dose of HU210 (30 μg/kg IP) 30 min after.

[3] = Tissue distribution: brain, plasma and liver levels after oral dosing; type: in vivo, C57BL/6J mice
Method: Tissue distribution and pharmacokinetics: Tissue levels of antagonist: 3 male C57BL/6J mice (7-9 weeks, PO group) were used in this study. Mice were fasted prior to administration of test article and had access to food 4 hours post dosing. Appropriate amount of test article was accurately weighted and mixed with the appropriate volume of vehicle to get a clear oral solution. The formulation was prepared on the day of dosing, and mice were dosed via oral gavage up to 4 hr after formulation was prepared. After 1 hour, mice were scarified and about 200 μL blood was collected from cardiac puncture followed by plasma preparation. Brain and liver were removed and further processed. Dose formulation and sample analysis was performed by LC-MS/MS method.
The peripherality of selected BB8 conjugates (BNS) was evaluated in vivo measuring their respective brain, plasma, and liver levels 1 hr following 10 mg/kg oral administration.

[4] = molecular target: CYP2C19 (Homo sapiens (Human), UniProt P33261); assay: CYP inhibition in human liver microsomes; type: in vitro ADME
Method: (§1) To evaluate the in vitro CYP inhibition of BNS808 and BNS822, the compounds were tested in human liver microsomes that are rich in drug metabolizing enzymes, including CYPs 1A2, 2C9, 2C19, 2D6, 3A4.

[5] = molecular target: CYP 2D6 (Homo sapiens (Human), UniProt P10635); assay: CYP inhibition in human liver microsomes; type: in vitro ADME
Method: as §1

[6] = molecular target: CYP 1A2 (Homo sapiens (Human), UniProt P05177); assay: CYP inhibition in human liver microsomes; type: in vitro ADME
Method: as §1

[7] = molecular target: CYP2C9 (Homo sapiens (Human), UniProt P11712); assay: CYP inhibition in human liver microsomes; type: in vitro ADME
Method: as §1

[8] = molecular target: CYP3A4 (Homo sapiens (Human), UniProt P08684); assay: CYP inhibition in human liver microsomes; type: in vitro ADME; details: for IC50: fifth value column, read-out: IC50 (μM) CYP 3A4
Method: as §1

[9] = test system: HepG2 Cells; assay: Cell Viability Assay in HepG2 Cells at 72 h; type: cell-based, human; details: Homo sapiens, HepG2, 72 h
Method: The liver plays a central role in transforming and clearing chemicals, and therefore is susceptible to toxicity of these agents. BNS808, BNS822 and other selected compounds were tested in the HepG2 assay using […] to evaluate cytotoxicity.

[10] = male, C57BL/6J, mouse, in vivo, po, 10 mg/kg

CYP3A4, sequence (P08684 whole entry): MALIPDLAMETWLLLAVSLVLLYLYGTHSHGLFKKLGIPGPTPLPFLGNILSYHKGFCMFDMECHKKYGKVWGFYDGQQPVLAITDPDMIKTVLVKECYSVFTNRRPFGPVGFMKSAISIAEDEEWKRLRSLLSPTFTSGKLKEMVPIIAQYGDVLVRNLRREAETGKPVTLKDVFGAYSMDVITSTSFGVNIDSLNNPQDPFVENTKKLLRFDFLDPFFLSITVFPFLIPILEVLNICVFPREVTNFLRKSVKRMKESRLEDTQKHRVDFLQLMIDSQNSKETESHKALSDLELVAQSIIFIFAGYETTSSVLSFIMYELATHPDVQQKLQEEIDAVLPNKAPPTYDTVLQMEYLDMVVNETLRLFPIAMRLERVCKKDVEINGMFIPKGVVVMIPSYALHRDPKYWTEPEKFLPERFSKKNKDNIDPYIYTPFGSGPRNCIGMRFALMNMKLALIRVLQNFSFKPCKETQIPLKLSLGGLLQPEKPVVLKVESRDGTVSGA
CYP2C19, sequence (P33261 whole entry): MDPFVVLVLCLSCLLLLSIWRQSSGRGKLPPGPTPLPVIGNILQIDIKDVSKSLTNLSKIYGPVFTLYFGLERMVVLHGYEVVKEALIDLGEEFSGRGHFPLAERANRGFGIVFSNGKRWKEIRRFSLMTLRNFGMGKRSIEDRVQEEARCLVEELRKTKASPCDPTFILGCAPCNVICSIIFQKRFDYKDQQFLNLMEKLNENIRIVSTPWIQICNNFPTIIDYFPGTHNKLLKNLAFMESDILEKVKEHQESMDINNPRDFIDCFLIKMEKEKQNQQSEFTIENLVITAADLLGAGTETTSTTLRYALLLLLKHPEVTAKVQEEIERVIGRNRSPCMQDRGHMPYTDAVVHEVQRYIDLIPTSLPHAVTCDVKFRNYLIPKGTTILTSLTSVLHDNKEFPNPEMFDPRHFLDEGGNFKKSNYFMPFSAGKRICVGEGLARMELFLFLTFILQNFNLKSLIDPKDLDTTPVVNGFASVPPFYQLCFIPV
CYP2C9, sequence (P11712 whole entry): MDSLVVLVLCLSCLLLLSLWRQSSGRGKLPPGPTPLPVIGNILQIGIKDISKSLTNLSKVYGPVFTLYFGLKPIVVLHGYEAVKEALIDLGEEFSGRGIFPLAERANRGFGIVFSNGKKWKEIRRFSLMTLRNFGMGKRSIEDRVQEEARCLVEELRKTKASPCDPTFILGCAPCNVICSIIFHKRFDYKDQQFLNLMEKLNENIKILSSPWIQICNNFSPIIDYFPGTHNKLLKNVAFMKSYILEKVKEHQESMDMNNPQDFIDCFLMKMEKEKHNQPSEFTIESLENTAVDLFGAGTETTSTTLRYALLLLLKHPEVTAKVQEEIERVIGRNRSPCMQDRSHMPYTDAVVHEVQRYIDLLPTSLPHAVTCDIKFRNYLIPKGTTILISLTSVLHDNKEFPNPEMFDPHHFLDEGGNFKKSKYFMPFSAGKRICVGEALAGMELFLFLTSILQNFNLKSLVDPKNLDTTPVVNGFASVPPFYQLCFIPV
CYP 2D6, sequence (P10635 whole entry): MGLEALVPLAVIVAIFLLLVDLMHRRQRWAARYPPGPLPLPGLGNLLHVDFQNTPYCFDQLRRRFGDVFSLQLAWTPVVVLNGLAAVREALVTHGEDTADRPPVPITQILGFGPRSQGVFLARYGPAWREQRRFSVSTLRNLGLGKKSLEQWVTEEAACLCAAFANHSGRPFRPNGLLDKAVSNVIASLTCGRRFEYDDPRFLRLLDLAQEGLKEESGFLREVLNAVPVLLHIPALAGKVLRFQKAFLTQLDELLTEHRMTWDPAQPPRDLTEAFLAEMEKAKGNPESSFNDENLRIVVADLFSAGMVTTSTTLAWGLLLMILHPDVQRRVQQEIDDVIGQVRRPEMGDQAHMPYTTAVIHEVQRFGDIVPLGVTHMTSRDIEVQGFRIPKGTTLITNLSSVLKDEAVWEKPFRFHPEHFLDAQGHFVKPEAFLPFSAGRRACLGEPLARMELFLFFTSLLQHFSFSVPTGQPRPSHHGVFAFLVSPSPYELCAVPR
CYP 1A2, sequence (P05177 whole entry): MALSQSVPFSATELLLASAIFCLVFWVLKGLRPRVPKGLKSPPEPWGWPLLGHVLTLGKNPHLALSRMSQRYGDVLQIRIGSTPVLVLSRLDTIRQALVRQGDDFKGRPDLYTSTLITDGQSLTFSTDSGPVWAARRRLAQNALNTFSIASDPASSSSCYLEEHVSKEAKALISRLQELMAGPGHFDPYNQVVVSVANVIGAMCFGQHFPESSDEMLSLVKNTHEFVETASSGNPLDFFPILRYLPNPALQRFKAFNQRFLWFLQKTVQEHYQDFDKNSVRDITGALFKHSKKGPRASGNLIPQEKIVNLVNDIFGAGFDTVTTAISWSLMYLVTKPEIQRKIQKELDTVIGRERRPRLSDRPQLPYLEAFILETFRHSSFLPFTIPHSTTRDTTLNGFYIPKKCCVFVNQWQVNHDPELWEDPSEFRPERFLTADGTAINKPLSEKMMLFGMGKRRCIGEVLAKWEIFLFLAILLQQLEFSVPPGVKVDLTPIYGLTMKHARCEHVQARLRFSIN

## O=S(=O)(NC1CCCOc2c1nn(-c1ccccc1Cl)c2-c1ccc(Cl)cc1)c1ccc(Cl)cc1 (stereo not shown) [BNS808, 4-chloro-N-[2-(2-chlorophenyl)-3-(4-chlorophenyl)-5,6,7,8-tetrahydrooxepino[3,2-c]pyrazol-8-yl]benzenesulfonamide]
[1]
  toxicity on AMES strains: no toxicity
  increase in reversion over the negative control: < 2 fold
[1]; TA98, S9 no
  AMES result (positive/negative): negative
[1]; TA98, S9 yes
  AMES result (positive/negative): negative
[1]; TA100, S9 no
  AMES result (positive/negative): negative
[1]; TA100, S9 yes
  AMES result (positive/negative): negative
[2]; single dose 1, 10 mg/kg PO
  effect on HU210-induced hypomotility: apparent lack of effects
[3]; 1 h post 10 mg/kg oral administration, C57BL/6J male mice
  Liver/Plasma ratio: 13.0
[3]; mouse, in vivo, 1 h post 10 mg/kg oral administration, C57BL/6J male mice, read-out: Brain/Plasma ratio
  Kp at 1 h: 1.07
[4]
  IC50: 18 µM
[4]; human liver microsomes
  inhibitor grade, CYP2C19: weak-moderate inhibitor
[5]
  IC50: > 50 µM
[6]
  IC50: > 50 µM
[7]
  IC50: 8.33 µM
[7]; human liver microsomes
  inhibitor grade, CYP2C9: weak-moderate inhibitor
[8]
  inhibitor grade, CYP3A4(M): moderate inhibitor
  IC50: 2.99 µM
[9]; read-out: Absolute IC50 (μM)
  IC50: 26.2 µM
[9]; read-out: Relative IC50 (μM)
  IC50: 16.8 µM

## Cc1ccc(C)c(OCCCC(C)(C)C(=O)NC2CCCOc3c2nn(-c2ccccc2Cl)c3-c2ccc(Cl)cc2)c1 (stereo not shown) [BNS822, N-[2-(2-chlorophenyl)-3-(4-chlorophenyl)-5,6,7,8-tetrahydrooxepino[3,2-c]pyrazol-8-yl]-5-(2,5-dimethylphenoxy)-2,2-dimethyl-pentanamide]
[1]
  toxicity on AMES strains: no toxicity
  increase in reversion over the negative control: < 2 fold
[1]; TA98, S9 no
  AMES result (positive/negative): negative
[1]; TA98, S9 yes
  AMES result (positive/negative): negative
[1]; TA100, S9 no
  AMES result (positive/negative): negative
[1]; TA100, S9 yes
  AMES result (positive/negative): negative
[2]; single dose 20 mg/kg PO
  effect on HU210-induced hypomotility: apparent lack of effects
[3]; [10]
  Kp at 1 h: < 0.02
  concentration at 1 h: 1.34 ng/g
[3]; male, C57BL/6J, mouse, in vivo, po, 10 mg/kg, 1 h
  Brain/Plasma ratio: <0.02
[4]; human liver microsomes, read-out: IC50 (μM) CYP 2C19
  IC50: > 50 µM
[5]; human liver microsomes, read-out: IC50 (μM) CYP 2D6
  IC50: > 50 µM
[6]; human liver microsomes, isozyme order of b227, read-out: IC50 (μM) CYP 1A2
  IC50: > 50 µM
[7]; human liver microsomes
  inhibitor grade, CYP2C9: weak-moderate inhibitor
[7]; human liver microsomes, read-out: IC50 (μM) CYP 2C9
  IC50: 8.52 µM
[8]
  IC50: > 50 µM
[9]; read-out: Absolute IC50
  IC50: > 100 µM
[9]; read-out: Relative IC50
  IC50: > 100 µM
